Measured values as given in ChEMBL document CHEMBL1201862, “PubChem BioAssay data set” (2004).
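Briefly, cells in 96-well plates were exposed to five compound concentrations for 48 h, and endpoints were estimated by linear interpolation. GI50: concentration for 50% inhibition of growth.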 Active and inactive are the calls of the source. Cut-off read from the data, not from the text of the source: active = GI50 up to about 1.1 µM and inactive = higher.

What was measured:
Test in all cases: NCI-60 cell line screen, 48 h
[1] = system: SF-295
[2] = system: NCI-H522
[3] = system: MCF7
[4] = system: HCT-116
[5] = system: MDA-N
[6] = system: A549
[7] = system: NCI-H460
[8] = system: NCI-H226
[9] = system: HT-29
[10] = system: OVCAR-4
[11] = system: M14
[12] = system: SW-620
[13] = system: SF-539
[14] = system: BT-549
[15] = system: RXF 393
[16] = system: DU-145
[17] = system: Malme-3M
[18] = system: CAKI-1
[19] = system: MOLT-4
[20] = system: UACC-257
[21] = system: RPMI-8226
[22] = system: COLO 205
[23] = system: UO-31
[24] = system: OVCAR-8
[25] = system: NCI-H23
[26] = system: SK-MEL-2
[27] = system: SK-MEL-28
[28] = system: HOP-92
[29] = system: SNB-75
[30] = system: TK-10
[31] = system: IGROV-1
[32] = system: 786-0
[33] = system: U-251
[34] = system: HCC 2998
[35] = system: SF-268
[36] = system: SK-MEL-5
[37] = system: SR
[38] = system: CCRF-CEM
[39] = system: HL-60
[40] = system: OVCAR-3
[41] = system: K562
[42] = system: HCT-15
[43] = system: EKVX
[44] = system: SK-OV-3
[45] = system: OVCAR-5
[46] = system: SNB-19
[47] = system: ACHN
[48] = system: PC-3
[49] = system: SN12C
[50] = system: NCI/ADR-RES
[51] = system: UACC-62
[52] = system: KM12

Compound: Nc1ccc2nc3n(c2c1)C(=O)c1ccccc1-3
- GI50 [1]: > 100 µM (inactive)
- GI50 [2]: > 100 µM (inactive)
- GI50 [3]: > 100 µM (inactive)
- GI50 [4]: > 100 µM (inactive)
- GI50 [5]: > 100 µM (inactive)
- GI50 [6]: > 100 µM (inactive)
- GI50 [7]: > 100 µM (inactive)
- GI50 [8]: > 100 µM (inactive)
- GI50 [9]: > 100 µM (inactive)
- GI50 [10]: > 100 µM (inactive)
- GI50 [11]: > 100 µM (inactive)
- GI50 [12]: > 100 µM (inactive)
- GI50 [13]: > 100 µM (inactive)
- GI50 [14]: > 100 µM (inactive)
- GI50 [15]: > 100 µM (inactive)
- GI50 [16]: > 100 µM (inactive)
- GI50 [17]: > 100 µM (inactive)
- GI50 [18]: > 100 µM (inactive)
- GI50 [19]: > 100 µM (inactive)
- GI50 [20]: > 100 µM (inactive)
- GI50 [21]: > 100 µM (inactive)
- GI50 [22]: > 100 µM (inactive)
- GI50 [23]: > 100 µM (inactive)
- GI50 [24]: > 100 µM (inactive)
- GI50 [25]: > 100 µM (inactive)
- GI50 [26]: > 100 µM (inactive)
- GI50 [27]: > 100 µM (inactive)
- GI50 [28]: > 100 µM (inactive)
- GI50 [29]: > 100 µM (inactive)
- GI50 [30]: > 100 µM (inactive)
- GI50 [31]: > 100 µM (inactive)
- GI50 [32]: > 100 µM (inactive)
- GI50 [33]: > 100 µM (inactive)
- GI50 [34]: > 100 µM (inactive)
- GI50 [35]: > 100 µM (inactive)
- GI50 [36]: > 100 µM (inactive)
- GI50 [37]: > 100 µM (inactive)
- GI50 [38]: > 100 µM (inactive)
- GI50 [39]: > 100 µM (inactive)
- GI50 [40]: > 100 µM (inactive)
- GI50 [41]: > 100 µM (inactive)
- GI50 [42]: > 100 µM
- GI50 [43]: > 100 µM (inactive)
- GI50 [44]: > 100 µM (inactive)
- GI50 [45]: > 100 µM (inactive)
- GI50 [46]: > 100 µM (inactive)
- GI50 [47]: > 100 µM (inactive)
- GI50 [48]: > 100 µM (inactive)
- GI50 [49]: > 100 µM (inactive)
- GI50 [50]: > 100 µM (inactive)
- GI50 [51]: > 100 µM (inactive)
- GI50 [52]: > 100 µM (inactive)
